Source: patent US20260265754A1, “CHK1-TARGETING SIRNAS CHEMICALLY MODIFIED WITH GEMCITABINE” (Sirnaomics, Inc., priority 2024, published 2026)
Where a name gives a salt, the structure may show the parent alone. d = 2'-deoxy (DNA); m = 2'-O-methyl; f = 2'-fluoro

Tests used:
[1] = test system: MiaPaCa-2 (pancreatic cancer) cells; experiment: Cell viability assay (CellTiter-Glo), lipofectamine transfection, MiaPaCa-2; type: cell-based; conditions: for Activity/efficacy in reducing cell viability: MiaPaCa-2 cells, FIG. 1; for Improvement of dose response over gemcitabine alone: MiaPaca2 cells
Procedure: All cell lines were obtained from ATCC (Rockville, MD). Cells were cultured in standard media supplemented with 10% FBS: Panc 10.05, H1299 and H358 in RPMI-1640 Medium, MiaPaCa-2, HT29 and MDA-MB-231 in DMEM, LS180 in EMEM. All media were obtained from ATCC (Rockville, MD). Cells were seeded in 384-well plates at a density of 0.3×10^3 to 1×10^3 cells/well. On the next day, cells were treated with serially diluted gemcitabine or siRNAs delivered by Lipofectamine RNAiMAX (Life Technologies, Carlsbad, CA). Ninety-six (96) hours after addition of gemcitabine or transfection reagent, the number of viable cells was determined using CellTiter-Glo(R)-2.0 reagent (Promega, Madison, WI) by measuring luminescent signal on a Cytation 5 plate reader (BioTek Inc, Winooski, VT). All values were compared to values generated for cells treated with non-silencing (NS) siRNA or to non-treated control and reported as the percentage cell viability. Values represent the mean±SD (n=4). All values were normalized to values generated for cells treated with a non-silencing siRNA and reported as the percentage cell viability. Calculation ofEC50 values. The EC50 values of the Gemcitabine, or Gemcitabine-modified siRNAs, (half-maximal effective concentration) were derived from a sigmoidal dose-response (variable slope) curve using GraphPad Prism 10.0.2(232) software (GraphPad Software, San Diego, Ca). Combination index (CI) calculation. […] CI=([…])2, where (Dx)1 and (Dx)2 are the doses of drug 1 and drug 2, alone, inhibiting 50%, whereas (D1) is the dose of drug 1 in combination, and (D2) the dose of drug 2 in combination that gives the experimentally observed 50% inhibition. These siRNA constructs were tested for their ability to reduce viability of pancreatic cancer using Miapaca2 cells after lipofectamine transfection of the siRNAs at varying concentrations. All of the constructs could inhibit the viability of these cells by 100% at concentrations below 100 nM. The contribution of the gemcitabine within the constructs was studied by making and evaluating constructs lacking the gemcitabine.

H2030 (G12C) cells = experiment: Cell viability assay, H2030; type: cell-based
Procedure: (§1) Cells were seeded in 384-well plates at a density of 0.3×10^3 to 1×10^3 cells/well. On the next day, cells were treated with serially diluted gemcitabine or siRNAs delivered by Lipofectamine RNAiMAX (Life Technologies, Carlsbad, CA). Ninety-six (96) hours after addition of gemcitabine or transfection reagent, the number of viable cells was determined using CellTiter-Glo(R)-2.0 reagent (Promega, Madison, WI) by measuring luminescent signal on a Cytation 5 plate reader (BioTek Inc, Winooski, VT). All values were compared to values generated for cells treated with non-silencing (NS) siRNA or to non-treated control and reported as the percentage cell viability. Values represent the mean±SD (n=4). All values were normalized to values generated for cells treated with a non-silencing siRNA and reported as the percentage cell viability. Calculation ofEC50 values. The EC50 values of the Gemcitabine, or Gemcitabine-modified siRNAs, (half-maximal effective concentration) were derived from a sigmoidal dose-response (variable slope) curve using GraphPad Prism 10.0.2(232) software (GraphPad Software, San Diego, Ca).

MDA-MB-231 (TNBC) cells = experiment: Cell viability assay (CellTiter-Glo), lipofectamine transfection, MDA-MB-231; type: cell-based; conditions: MDA-MB-231 cells, FIG. 2K
Procedure: as §1, with “All cell lines were obtained from ATCC (Rockville, MD). Cells were cultured in standard media supplemented with 10% FBS: Panc 10.05, H1299 and H358 in RPMI-1640 Medium, MiaPaCa-2, HT29 and MDA-MB-231 in DMEM, LS180 in EMEM. All media were obtained from ATCC (Rockville, MD). Cells” for “Cells”

[2] = test system: OVCAR-3 (ovarian cancer) cells; experiment: Cell viability assay, lipofectamine transfection, OVCAR-3; type: cell-based; conditions: OVCAR-3 cells, FIG. 2L
Procedure: as §1

A549 (G12S) cells = experiment: Cell viability assay, A549; type: cell-based
Procedure: as §1

H1299 (KRAS wt) cells = experiment: Cell viability assay (CellTiter-Glo), lipofectamine transfection, H1299; type: cell-based
Procedure: (§2) All cell lines were obtained from ATCC (Rockville, MD). Cells were cultured in standard media supplemented with 10% FBS: Panc 10.05, H1299 and H358 in RPMI-1640 Medium, MiaPaCa-2, HT29 and MDA-MB-231 in DMEM, LS180 in EMEM. All media were obtained from ATCC (Rockville, MD).
as §1, with “viability.” for “viability. Calculation ofEC50 values. The EC50 values of the Gemcitabine, or Gemcitabine-modified siRNAs, (half-maximal effective concentration) were derived from a sigmoidal dose-response (variable slope) curve using GraphPad Prism 10.0.2(232) software (GraphPad Software, San Diego, Ca).”
(§3) Calculation ofEC50 values. The EC50 values of the Gemcitabine, or Gemcitabine-modified siRNAs, (half-maximal effective concentration) were derived from a sigmoidal dose-response (variable slope) curve using GraphPad Prism 10.0.2(232) software (GraphPad Software, San Diego, Ca). […]

H358 cells (KRAS G12C) = experiment: Cell viability assay (CellTiter-Glo), lipofectamine transfection, H358; type: cell-based
Procedure: as §2
as §1, with “viability.” for “viability. Calculation ofEC50 values. The EC50 values of the Gemcitabine, or Gemcitabine-modified siRNAs, (half-maximal effective concentration) were derived from a sigmoidal dose-response (variable slope) curve using GraphPad Prism 10.0.2(232) software (GraphPad Software, San Diego, Ca).”
as §3

[3] = PNP particle size and zeta potential by dynamic light scattering; type: physicochemical; parameters: Nanoparticle size: unit not given here; conditions: for Nanoparticle size: siRNA formulated with HKP(+H), dynamic light scattering
Procedure: To test the efficacy of the products in vivo siRNAs (non-silencing siRNA (Control; NS), and PGN6) were formulated with a branched histidine lysine polymer (HKP (+H)) to form peptide nanoparticle (PNP) formulations were prepared using a microfluidic mixing system with a staggered herringbone patterned mixer (Precision NanoSystems, Vancouver, BC, Canada). HKP(+H) stock was prepared in water and diluted to appropriate concentrations. PolyGem siRNA or non-silencing (NS) siRNA stocks were prepared in water. The HKP(+H) and siRNA were mixed at a volume ratio of 1:1 at 8-10 mL/min total flow rate. Formulations were incubated for 30 min at room temperature. Particle size and zeta potential were then determined by dynamic light scattering with a Zetasizer Ultra (Malvern Panalytical, MA). A gel retardation assay was used to evaluate the efficiency of complex formation. Briefly, pre-formed PNPs were mixed with RNA loading dye and applied to 2% agarose gel. The gel was run in 0.5×TBE for 15 min. Electrophoretic mobility of the siRNA-nanoparticles was analyzed on a gel imaging system.

Compound: PGN7S (sense AAGAAAGAGAUCUGUAUCAAU; antisense AUUGAUACAGAUCUCUUUCUUCCDUDU; gemcitabine nucleotides; phosphorothioates; 5' LS on antisense; modified_base 1 OTHER; 2'-O-methyl adenosine; modified_base 9 OTHER; 2'-fluoro-guanosine; modified_base 15 OTHER; 2'-fluorouracil; modified_base 21 OTHER; modified_base 16 OTHER; modified_base 6 OTHER; modified_base 17 OTHER; modified_base 19 OTHER; modified_base 5 OTHER; m; modified_base 3 um; modified_base 4 gm; modified_base 7 OTHER; 2)
- Activity/efficacy in reducing cell viability [1]: weaker activity than either PGN6 or PGN7

Compound: PGN7: Chk1-targeting siRNA, 2′OMe/2′-fluoro modified, four gemcitabine nucleosides; SEQ ID Nos. 5-6 (chain 1 AAGAAAGAGAUCUGUAUCAAU; chain 2 AUUGAUACAGAUCUCUUUCUUCCUU; 2'-OMe/2'-F modified, four gemcitabine nucleosides, full pattern not given here)
- IC50 (H2030 (G12C) cells): 3 nM
- Activity/efficacy in reducing cell viability (MDA-MB-231 (TNBC) cells): greater potency
- Activity/efficacy in reducing cell viability [2]: greater potency
- IC50 (A549 (G12S) cells): ~6 nM
- IC50 (H1299 (KRAS wt) cells): ~6 nM
- IC50 (H358 cells (KRAS G12C)): ~1 nM
- Improvement of dose response over gemcitabine alone [1]: 100 fold

Compound: PGN6 (no Gem): Modified Chk1 siRNA as PGN6 lacking gemcitabine; SEQ ID Nos. 7-8 (chain 1 AAGAAAGAGAUCUGUAUCAAU; chain 2 AUUGAUACAGAUCUCUUUCUUTT; chain 1: sugars from the 5' end mmmmmmfmffffmmmmmfmmm, backbone not given here; chain 2: sugars from the 5' end mfmmmfmmmmmmmfmffffffdd, backbone not given here; further chemistry not fully specified)
- Activity/efficacy in reducing cell viability [1]: did not show good efficacy at higher concentrations

Compound: Non-Silencing: Non-silencing siRNA control; SEQ ID Nos. 1-2 (chain 1 CGAGCAGGGUAUCGACGAUUACAAA; chain 2 UUUGUAAUCGUCGAUACCCUGCUCG; RNA, backbone not given here; listed as Homo sapiens) [reference compound]
- Nanoparticle size [3]: 82.6

Compound: Nc1ccn([C@@H]2O[C@H](CO)[C@@H](O)C2(F)F)c(=O)n1 [gemcitabine, 2′-deoxy-2′,2′-difluorocytidine monohydrochloride]
- IC50 ([1]; Homo sapiens, MIA PaCa-2, MiaPaca-2 cells, 96 h, free gemcitabine or siRNA by lipofectamine): > 10 nM

Compound: PGN6: Chk1-targeting siRNA, 2′OMe/2′-fluoro modified, four gemcitabine nucleosides; SEQ ID Nos. 3-4 (chain 1 AAGAAAGAGAUUCGUAUCAAU; chain 2 AUUGAUACAGAUCUCUUUCUUCCUU; 2'-OMe/2'-F modified, four gemcitabine nucleosides, full pattern not given here)
- Activity/efficacy in reducing cell viability (MDA-MB-231 (TNBC) cells): greater potency
- Activity/efficacy in reducing cell viability [2]: greater potency
- Zeta potential ([3]; siRNA formulated in HKP(+H)): 35.8 mV
- Nanoparticle size [3]: 86.7
- Improvement of dose response over gemcitabine alone [1]: 100 fold

Compound: PGN7 (no Gem): Modified Chk1 siRNA as PGN7 lacking gemcitabine; SEQ ID Nos. 9-10 (chain 1 AAGAAAGAGAUCUGUAUCAAU; chain 2 AUUGAUACAGAUCUCUUUCUUTT; chain 1: sugars from the 5' end mmmmmmfmfffffmfmffmmf, backbone not given here; chain 2: sugars from the 5' end mfmmmfmmmmmfmfmfmfmfmdd, backbone not given here; further chemistry not fully specified)
- Activity/efficacy in reducing cell viability [1]: did not show good efficacy at higher concentrations
